In PMC4022547 (Molecular Brain, 2014):

Columns and labels:
[1] = target: hα6(D199Y) + hβ4 + hβ3 nAChR (Homo sapiens, UniProt P30926+Q15825, D199Y); assay: Oocyte two-electrode voltage clamp; type: cell-based
Experimental: (§1) We planned to introduce identical amounts of cRNA, presumably producing equal amounts of each subunit protein, into oocytes largely due to lack of information about the levels of mRNA for each subunits that compose α6*-nAChRs in neurons or other cells. Concentrations of cRNAs for each nAChR α and β subunits (WT, mutant or variant) were adjusted to 500 ng μL^−1. We provisionally assumed that hα6 or its variants in association with hβ2 or hβ4 subunits would form complexes having 2:3 and/or 3:2 ratios of the indicated subunits and that oocytes also injected with WT or mutant form of β3 subunits (i.e., β3^V9’S) would express nAChR with 2:2:1 ratios of α:β:(β3 or β3^V9’S) subunits. For expression of binary nAChRs (i.e., two subunit containing nAChRs; α + β but not β3) cRNA mixtures were prepared by mixing 1 μL of cRNA for each subunit and an additional μL of RNAse free water (i.e., total volume 3 μL). Similarly for expression of ternary nAChRs [i.e., three subunit containing nAChRs; (α + β) + (β3 or β3^V9’S)] cRNA mixtures were prepared by mixing 1 μL of cRNA for each subunit. Several preparations of each mixture were prepared and stored at −80°C until further use. Injection of 138 nL of cRNA, out of 3 μL cRNA mixtures, into each oocyte would deliver ~23 ng of cRNA for each subunit whether binary or ternary nAChRs are expressed.
(§2) Two to 5 days after injection, oocytes were placed in a small-volume chamber and continuously perfused with OR2. The chamber was grounded through an agarose bridge. The oocytes were voltage-clamped at −70 mV (unless otherwise noted) to measure agonist or antagonist induced currents using Axoclamp 900A and pClamp 10.2 software (Molecular Devices, Sunnyvale, CA). The current signal was low-pass filtered at 10 Hz with the built-in low-pass Bessel filter in the Axoclamp 900A and digitized at 20 Hz with Axon Digidata1440A and pClamp10. […] Drugs (agonists and antagonists) were prepared daily in OR2. Drug was applied using a Valvelink 8.2 perfusion system (Automate scientific, Berkeley, CA). […] Then for the purpose of comparison electrophysiological recordings were performed in a given day in a given batch of oocytes following the same order of injections. […] All hβ4*-nAChR recordings were done in similar conditions to facilitate comparisons between hα6hβ4- and hα6hβ4hβ3-nAChRs. All electrophysiological measurements were conducted or checked in at least two batches of oocytes.
(§3) Raw data was collected and processed in part using pClamp 10.2 (Molecular Devices, Sunnyvale, CA), Origin 7.5 (OriginLab Corporation, Northampton, MA) and a spreadsheet (Excel; Microsoft, Bellevue, WA). Peak current amplitudes (Imax) are reported as mean ± SEM (for results from at least three oocytes, i.e., n = 3).

[2] = target: T1, hα6(R87C) + WT hβ2 + hβ3^V9’S nAChR (Homo sapiens, UniProt P17787+Q15825, R87C); assay: Oocyte two-electrode voltage clamp; type: cell-based; details: ACh, nicotine or atropine; hβ2 type not specified
T1 construct: Full length capped mRNA (i.e., cRNA) was transcribed from linearized plasmids; expressed in transfected cells; host or cells: Xenopus laevis oocytes injected with cRNA
T1 sequence (Q15825 26-494 R87C): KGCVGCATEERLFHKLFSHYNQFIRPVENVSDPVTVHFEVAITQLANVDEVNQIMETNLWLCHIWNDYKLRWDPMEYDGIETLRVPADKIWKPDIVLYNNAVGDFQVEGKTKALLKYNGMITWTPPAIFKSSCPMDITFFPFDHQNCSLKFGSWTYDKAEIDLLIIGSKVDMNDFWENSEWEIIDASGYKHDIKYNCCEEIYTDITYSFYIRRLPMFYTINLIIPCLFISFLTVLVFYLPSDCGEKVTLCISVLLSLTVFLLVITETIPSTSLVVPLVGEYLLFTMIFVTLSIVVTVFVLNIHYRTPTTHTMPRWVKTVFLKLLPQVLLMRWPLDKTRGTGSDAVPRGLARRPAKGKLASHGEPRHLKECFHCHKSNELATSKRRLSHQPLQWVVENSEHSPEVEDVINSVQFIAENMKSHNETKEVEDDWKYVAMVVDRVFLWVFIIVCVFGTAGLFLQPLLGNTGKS
T1 sequence (P17787 26-502): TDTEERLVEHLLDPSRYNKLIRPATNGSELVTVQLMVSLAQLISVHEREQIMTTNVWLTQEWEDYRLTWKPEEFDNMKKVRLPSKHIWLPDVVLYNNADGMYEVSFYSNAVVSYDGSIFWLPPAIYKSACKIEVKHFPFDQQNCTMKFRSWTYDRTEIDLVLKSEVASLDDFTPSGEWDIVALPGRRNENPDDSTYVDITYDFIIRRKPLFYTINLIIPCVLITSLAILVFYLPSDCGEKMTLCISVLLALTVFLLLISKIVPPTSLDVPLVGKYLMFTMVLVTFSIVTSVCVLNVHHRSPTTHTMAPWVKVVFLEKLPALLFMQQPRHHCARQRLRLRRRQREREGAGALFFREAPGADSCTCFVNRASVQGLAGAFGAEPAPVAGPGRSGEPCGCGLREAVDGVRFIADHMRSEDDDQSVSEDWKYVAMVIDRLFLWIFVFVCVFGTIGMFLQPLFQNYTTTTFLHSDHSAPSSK
T1 sequence (Q05901 25-458 V273S partner limits assumed): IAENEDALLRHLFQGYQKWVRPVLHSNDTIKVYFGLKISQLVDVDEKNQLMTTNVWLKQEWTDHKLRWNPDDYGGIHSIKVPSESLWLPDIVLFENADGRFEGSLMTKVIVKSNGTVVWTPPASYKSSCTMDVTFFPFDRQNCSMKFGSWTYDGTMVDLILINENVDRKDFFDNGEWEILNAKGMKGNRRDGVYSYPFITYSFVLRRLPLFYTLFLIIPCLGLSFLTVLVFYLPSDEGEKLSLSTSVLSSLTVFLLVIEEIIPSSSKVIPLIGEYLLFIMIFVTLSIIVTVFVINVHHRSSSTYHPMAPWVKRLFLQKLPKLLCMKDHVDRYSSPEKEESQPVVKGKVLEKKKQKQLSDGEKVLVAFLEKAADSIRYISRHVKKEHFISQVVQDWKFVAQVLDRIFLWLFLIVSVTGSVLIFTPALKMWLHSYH
Experimental: as §1, §2, §3

hα6(R96H) + hβ4 nAChR = target: T2, hα6(R96H) + hβ4 nAChR (Homo sapiens, UniProt P30926+Q15825, R96H); assay: Oocyte two-electrode voltage clamp; type: cell-based; details: 1000 μM ACh; 1 μM atropine co-applied
T2 construct: Full length capped mRNA (i.e., cRNA) was transcribed from linearized plasmids; expressed in transfected cells; host or cells: Xenopus laevis oocytes injected with cRNA
T2 sequence (Q15825 26-494 R96H): as the sequence (Q15825 26-494 R87C) above, with C62R, R71H counted along it
T2 sequence (P30926 22-498, stated change not applied): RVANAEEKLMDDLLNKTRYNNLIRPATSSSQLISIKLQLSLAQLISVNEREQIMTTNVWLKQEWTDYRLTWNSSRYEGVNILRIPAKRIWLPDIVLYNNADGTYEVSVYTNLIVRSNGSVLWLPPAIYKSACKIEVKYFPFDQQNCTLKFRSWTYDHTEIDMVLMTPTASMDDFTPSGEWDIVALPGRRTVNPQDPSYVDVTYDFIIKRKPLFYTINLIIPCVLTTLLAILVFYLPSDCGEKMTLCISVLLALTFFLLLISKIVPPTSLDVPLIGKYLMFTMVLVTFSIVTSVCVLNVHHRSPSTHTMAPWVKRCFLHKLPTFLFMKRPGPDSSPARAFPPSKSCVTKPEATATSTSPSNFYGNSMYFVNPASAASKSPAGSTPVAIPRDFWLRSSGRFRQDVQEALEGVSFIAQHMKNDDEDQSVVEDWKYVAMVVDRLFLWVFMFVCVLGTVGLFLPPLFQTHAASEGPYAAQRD
Experimental: as §1, §2, §3

[3] = target: hα6^D57Nhβ4hβ3^V9’S-nAChR (Homo sapiens, UniProt P30926+Q15825, D57N); details: nicotine (100 μM), ACh (100 μM) or atropine (1000 μM)
Chain of hα6^D57Nhβ4hβ3^V9’S-nAChR (Q15825 26-494 D57N): as the sequence (Q15825 26-494 R87C) above, with D32N, C62R counted along it
Chain of hα6^D57Nhβ4hβ3^V9’S-nAChR (P30926 22-498): as the sequence (P30926 22-498, stated change not applied) above
Chain of hα6^D57Nhβ4hβ3^V9’S-nAChR (Q05901 25-458 V273S partner limits assumed): as the sequence (Q05901 25-458 V273S partner limits assumed) above
Experimental: as §1, §2

[4] = target: hα6^N171Khβ4β3^V9’S-nAChR (Homo sapiens, UniProt P30926+Q15825, N171K); details: nicotine (100 μM), ACh (100 μM) or atropine (1000 μM)
Chain of hα6^N171Khβ4β3^V9’S-nAChR (Q15825 26-494 N171K): as the sequence (Q15825 26-494 R87C) above, with C62R, N146K counted along it
Chain of hα6^N171Khβ4β3^V9’S-nAChR (P30926 22-498): as the sequence (P30926 22-498, stated change not applied) above
Chain of hα6^N171Khβ4β3^V9’S-nAChR (Q05901 25-458 V273S partner limits assumed): as the sequence (Q05901 25-458 V273S partner limits assumed) above
Experimental: as §1, §2

[5] = target: hα6^R87C + hβ4 + hβ3^V9’S nAChR (Homo sapiens, UniProt P30926+Q15825, R87C); details: nicotine (100 μM), ACh (100 μM) or atropine (1000 μM)
Chain of hα6^R87C + hβ4 + hβ3^V9’S nAChR (Q15825 26-494 R87C): as the sequence (Q15825 26-494 R87C) above
Chain of hα6^R87C + hβ4 + hβ3^V9’S nAChR (P30926 22-498): as the sequence (P30926 22-498, stated change not applied) above
Chain of hα6^R87C + hβ4 + hβ3^V9’S nAChR (Q05901 25-458 V273S partner limits assumed): as the sequence (Q05901 25-458 V273S partner limits assumed) above
Experimental: as §1, §2

[6] = target: hα6^S156Rhβ4hβ3^V9’S-nAChR (Homo sapiens, UniProt P30926+Q15825, S156R); details: nicotine (100 μM), ACh (100 μM) or atropine (1000 μM)
Chain of hα6^S156Rhβ4hβ3^V9’S-nAChR (Q15825 26-494 S156R): as the sequence (Q15825 26-494 R87C) above, with C62R, S131R counted along it
Chain of hα6^S156Rhβ4hβ3^V9’S-nAChR (P30926 22-498): as the sequence (P30926 22-498, stated change not applied) above
Chain of hα6^S156Rhβ4hβ3^V9’S-nAChR (Q05901 25-458 V273S partner limits assumed): as the sequence (Q05901 25-458 V273S partner limits assumed) above
Experimental: as §1, §2

hα6hβ4hβ3^V9’S-nAChR = hα6hβ4hβ3^V9’S-nAChR (Homo sapiens, UniProt P30926+Q05901+Q15825, V273S); details: nicotine (100 μM), ACh (100 μM) or atropine (1000 μM); spontaneously opening channels
Chain of hα6hβ4hβ3^V9’S-nAChR (Q15825 26-494): as the sequence (Q15825 26-494 R87C) above, with C62R counted along it
Chain of hα6hβ4hβ3^V9’S-nAChR (P30926 22-498): as the sequence (P30926 22-498, stated change not applied) above
Chain of hα6hβ4hβ3^V9’S-nAChR (Q05901 22-458 V273S): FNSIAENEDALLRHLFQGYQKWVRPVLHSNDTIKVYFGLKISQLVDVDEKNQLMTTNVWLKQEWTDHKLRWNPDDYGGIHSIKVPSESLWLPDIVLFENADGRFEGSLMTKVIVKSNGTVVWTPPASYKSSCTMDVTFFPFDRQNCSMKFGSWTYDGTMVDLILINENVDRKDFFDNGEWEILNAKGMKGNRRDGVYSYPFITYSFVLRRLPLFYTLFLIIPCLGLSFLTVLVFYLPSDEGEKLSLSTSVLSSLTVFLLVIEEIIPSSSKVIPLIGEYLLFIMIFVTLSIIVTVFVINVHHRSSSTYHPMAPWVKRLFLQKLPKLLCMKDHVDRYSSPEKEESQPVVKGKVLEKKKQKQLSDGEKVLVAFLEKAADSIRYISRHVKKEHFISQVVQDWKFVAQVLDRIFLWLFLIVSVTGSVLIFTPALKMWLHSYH
Experimental: as §1, §2

Chain of hα6(D199Y) + hβ4 + hβ3 nAChR (Q15825 26-494 D199Y): as the sequence (Q15825 26-494 R87C) above, with C62R, D174Y counted along it
Chain of hα6(D199Y) + hβ4 + hβ3 nAChR (P30926 22-498): as the sequence (P30926 22-498, stated change not applied) above
Chain of hα6(D199Y) + hβ4 + hβ3 nAChR (Q05901 25-458 partner limits assumed): as the sequence (Q05901 25-458 V273S partner limits assumed) above, with S249V counted along it

For CC(=O)OCC[N+](C)(C)C [ACh, acetylcholine], the “nH ± SE (Hill coefficient)” value [1] was 1.1 ± 0.07, the “Mean Imax ± SE (nA)” value ([1]; 1000 μM ACh, 1 μM atropine co-applied) was 494 ± 51 nA and the current response [2] was “not obtained”. The “Mean Imax ± SE (nA)” value (hα6(R96H) + hβ4 nAChR) was 31 ± 4 nA, the “current response (direction)” value [3] was “outward reversible currents” and the “current response (direction)” value [4] was “outward reversible currents”. The current response [5] was “not obtained”, the “current response (direction)” value [6] was “outward reversible currents” and the “current response (direction)” value (hα6hβ4hβ3^V9’S-nAChR) was “robust inward current”.
